IC50 data for one molecule are collected here from paper PMC4411090, “Activating the Wnt/β-Catenin Pathway for the Treatment of Melanoma – Application of LY2090314, a Novel Selective Inhibitor of Glycogen Synthase Kinase-3” (PLoS ONE, 2015).

For one assay, the target named is T1, GSK3β (Homo sapiens, UniProt P49841).
T1 construct: gene GSK3B; human recombinant
The assay can be described thus: cell-free kinase assay with recombinant enzyme and phosphopeptide substrate. Type of assay: biochemical.

The target of the next assay is T2, GSK3α (Homo sapiens, UniProt P49840).
T2 construct: gene GSK3A; human recombinant
The description is as above. In kind it is biochemical.

T2 sequence (P49840 2-483): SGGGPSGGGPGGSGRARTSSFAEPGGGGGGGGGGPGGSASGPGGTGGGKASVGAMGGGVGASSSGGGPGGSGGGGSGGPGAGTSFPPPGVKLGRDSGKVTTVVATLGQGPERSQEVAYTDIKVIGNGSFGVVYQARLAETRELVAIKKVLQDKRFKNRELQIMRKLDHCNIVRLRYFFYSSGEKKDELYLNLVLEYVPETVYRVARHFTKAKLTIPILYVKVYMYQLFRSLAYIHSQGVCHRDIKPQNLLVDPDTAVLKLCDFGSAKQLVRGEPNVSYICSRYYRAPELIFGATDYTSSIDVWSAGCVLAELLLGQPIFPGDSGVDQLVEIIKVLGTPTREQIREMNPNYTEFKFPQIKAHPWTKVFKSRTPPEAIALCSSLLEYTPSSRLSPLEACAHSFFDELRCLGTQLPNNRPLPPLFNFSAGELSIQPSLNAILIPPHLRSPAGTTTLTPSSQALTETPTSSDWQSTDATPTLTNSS
T1 sequence (P49841 whole entry): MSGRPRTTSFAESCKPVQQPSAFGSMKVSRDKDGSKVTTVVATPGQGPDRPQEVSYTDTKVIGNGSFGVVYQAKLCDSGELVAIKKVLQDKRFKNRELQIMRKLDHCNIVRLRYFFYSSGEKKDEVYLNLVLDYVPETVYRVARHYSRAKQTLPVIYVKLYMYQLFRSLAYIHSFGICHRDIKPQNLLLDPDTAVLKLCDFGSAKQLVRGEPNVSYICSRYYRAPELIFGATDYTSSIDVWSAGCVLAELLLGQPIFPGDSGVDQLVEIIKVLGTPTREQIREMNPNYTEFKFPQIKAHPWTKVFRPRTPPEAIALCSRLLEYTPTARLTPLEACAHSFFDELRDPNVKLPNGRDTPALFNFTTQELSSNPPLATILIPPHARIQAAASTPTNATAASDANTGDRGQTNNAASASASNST

As for `O=C1NC(=O)C(c2cnc3ccccn23)=C1c1cn2c3c(cc(F)cc13)CN(C(=O)N1CCCCC1)CC2` [LY2090314], the IC50 (in general, the concentration needed to halve the response being measured) is 0.9 nM at GSK3β and 1.5 nM at GSK3α.
